US20160038468A1 (priority 2013, published 2016)
Values after ≈ are worked out from the molar mass of the structure shown. Like-named read-outs stand apart in the source and are kept apart here.

Legend:
Format in all cases: cell-based
Conditions in all cases: for MIC: read-out: Minimal Inhibitory Concentration (MIC)
[1] = tested on: Prevotella bivia; assay: Agar dilution MIC (CLSI), Prevotella bivia vaginal isolates
[2] = tested on: Peptoniphilus lacrimalis; assay: Agar dilution MIC (CLSI), Peptoniphilus lacrimalis vaginal isolates
[3] = tested on: Prevotella timonensis; assay: Agar dilution MIC (CLSI), Prevotella timonensis vaginal isolates
[4] = Peptoniphilus lacrimalis, # tested 20
[5] = Hoylesella timonensis, # tested 33

Work on `Cc1ncc([N+](=O)[O-])n1CCO` [Metronidazole] yielded an MIC ([1]; Prevotella bivia, isolate 601293 22) of 8 µg/mL (≈ 46.7 µM), an MIC ([1]; Prevotella bivia, isolate 601305 H) of 16 µg/mL (≈ 93.5 µM) and an MIC ([1]; Prevotella bivia, isolate 601340 31) of 4 µg/mL (≈ 23.4 µM). The MIC ([1]; Prevotella bivia, isolate 601355 B) was 8 µg/mL (≈ 46.7 µM), the MIC ([1]; Prevotella bivia, isolate 601367 M) was 8 µg/mL (≈ 46.7 µM) and the MIC ([1]; Prevotella bivia, isolate 601374 A1) was 16 µg/mL (≈ 93.5 µM). For the same molecule, the MIC ([1]; Prevotella bivia, isolate 601378 B) was 16 µg/mL (≈ 93.5 µM), the MIC ([1]; Prevotella bivia, isolate 601379 19) was 16 µg/mL (≈ 93.5 µM) and the MIC ([1]; Prevotella bivia, isolate 601388 T) was 4 µg/mL (≈ 23.4 µM). The MIC ([1]; Prevotella bivia, isolate 601389 10) was 4 µg/mL (≈ 23.4 µM), the MIC ([1]; Prevotella bivia, isolate 601389 J) was 4 µg/mL (≈ 23.4 µM) and the MIC ([1]; Prevotella bivia, isolate 601392 14) was 4 µg/mL (≈ 23.4 µM). It also gave an MIC ([1]; Prevotella bivia, isolate 601409 V) of 4 µg/mL (≈ 23.4 µM), an MIC ([1]; Prevotella bivia, isolate 601410 12) of 4 µg/mL (≈ 23.4 µM) and an MIC ([1]; Prevotella bivia, isolate 601429 1) of 8 µg/mL (≈ 46.7 µM). The MIC ([1]; Prevotella bivia, isolate 601433 19) was 8 µg/mL (≈ 46.7 µM), the MIC ([1]; Prevotella bivia, isolate 601449 E) was 16 µg/mL (≈ 93.5 µM) and the MIC ([1]; Prevotella bivia, isolate 601453 A) was 8 µg/mL (≈ 46.7 µM). The MIC ([1]; Prevotella bivia, isolate 601455 D1) was 16 µg/mL (≈ 93.5 µM), the MIC ([1]; Prevotella bivia, isolate 601458 16) was 16 µg/mL (≈ 93.5 µM) and the MIC50 ([1]; Prevotella bivia, # tested 34) was 8 µg/mL (≈ 46.7 µM). The MIC90 ([1]; Prevotella bivia, # tested 34) was 16 µg/mL (≈ 93.5 µM), the Susceptible ([1]; number (%) of isolates, # tested 34) was 21 (62) μg/ml and the “MIC Range” value ([2]; # tested 20) was 0.5 to 4 µg/mL. It also gave an MIC ([2]; Peptoniphilus lacrimalis, isolate 601028V 27A) of 2 µg/mL (≈ 11.7 µM), an MIC ([2]; Peptoniphilus lacrimalis, isolate 601060V 32A) of 2 µg/mL (≈ 11.7 µM) and an MIC ([2]; Peptoniphilus lacrimalis, isolate 601078V O) of 1 µg/mL (≈ 5.84 µM). For the same molecule, the MIC ([2]; Peptoniphilus lacrimalis, isolate 601084V c) was 4 µg/mL (≈ 23.4 µM), the MIC ([2]; Peptoniphilus lacrimalis, isolate 601105V 13) was 4 µg/mL (≈ 23.4 µM) and the MIC ([2]; Peptoniphilus lacrimalis, isolate 601139V 17) was 4 µg/mL (≈ 23.4 µM). The MIC ([2]; Peptoniphilus lacrimalis, isolate 601213V 17) was 2 µg/mL (≈ 11.7 µM), the MIC ([2]; Peptoniphilus lacrimalis, isolate 601255V 12) was 1 µg/mL (≈ 5.84 µM) and the MIC ([2]; Peptoniphilus lacrimalis, isolate 601261V O) was 1 µg/mL (≈ 5.84 µM). The MIC ([2]; Peptoniphilus lacrimalis, isolate 601293V 15) was 1 µg/mL (≈ 5.84 µM), the MIC ([2]; Peptoniphilus lacrimalis, isolate 601296V N) was 1 µg/mL (≈ 5.84 µM) and the MIC ([2]; Peptoniphilus lacrimalis, isolate 601305V K-1) was 1 µg/mL (≈ 5.84 µM). For the same molecule, the MIC ([2]; Peptoniphilus lacrimalis, isolate 601318V E) was 1 µg/mL (≈ 5.84 µM), the MIC ([2]; Peptoniphilus lacrimalis, isolate 601330V H) was 1 µg/mL (≈ 5.84 µM) and the MIC ([2]; Peptoniphilus lacrimalis, isolate 601336V 47) was 1 µg/mL (≈ 5.84 µM). The MIC ([2]; Peptoniphilus lacrimalis, isolate 601365V 13) was 2 µg/mL (≈ 11.7 µM), the MIC ([2]; Peptoniphilus lacrimalis, isolate 601368V 39) was 0.5 µg/mL (≈ 2.92 µM) and the MIC ([2]; Peptoniphilus lacrimalis, isolate 601375V E) was 1 µg/mL (≈ 5.84 µM). It also gave an MIC ([2]; Peptoniphilus lacrimalis, isolate 601388V B) of 1 µg/mL (≈ 5.84 µM), an MIC ([2]; Peptoniphilus lacrimalis, isolate 601401V I) of 1 µg/mL (≈ 5.84 µM) and an MIC50 [2, 4] of 1 µg/mL (≈ 5.84 µM). The MIC90 [2, 4] was 4 µg/mL (≈ 23.4 µM), the MIC ([3]; Hoylesella timonensis, isolate 301212 10) was 2 µg/mL (≈ 11.7 µM) and the MIC ([3]; Hoylesella timonensis, isolate 601080 5) was 2 µg/mL (≈ 11.7 µM). For the same molecule, the MIC ([3]; Hoylesella timonensis, isolate 601088 15) was 2 µg/mL (≈ 11.7 µM), the MIC ([3]; Hoylesella timonensis, isolate 601093 24) was 2 µg/mL (≈ 11.7 µM) and the MIC ([3]; Hoylesella timonensis, isolate 601097 S) was 2 µg/mL (≈ 11.7 µM). For the same molecule, the MIC ([3]; Hoylesella timonensis, isolate 601098 B) was 2 µg/mL (≈ 11.7 µM), the MIC ([3]; Hoylesella timonensis, isolate 601157 19) was 2 µg/mL (≈ 11.7 µM) and the MIC ([3]; Hoylesella timonensis, isolate 601167 13) was 2 µg/mL (≈ 11.7 µM). The MIC ([3]; Hoylesella timonensis, isolate 601170 13) was 2 µg/mL (≈ 11.7 µM), the MIC ([3]; Hoylesella timonensis, isolate 601175 J) was 2 µg/mL (≈ 11.7 µM) and the MIC ([3]; Hoylesella timonensis, isolate 601178 19) was 2 µg/mL (≈ 11.7 µM). The MIC ([3]; Hoylesella timonensis, isolate 601194 9B) was 2 µg/mL (≈ 11.7 µM), the MIC ([3]; Hoylesella timonensis, isolate 601214 A) was 4 µg/mL (≈ 23.4 µM) and the MIC ([3]; Hoylesella timonensis, isolate 601226 C) was 2 µg/mL (≈ 11.7 µM). It also gave an MIC ([3]; Hoylesella timonensis, isolate 601234 B) of 2 µg/mL (≈ 11.7 µM), an MIC ([3]; Hoylesella timonensis, isolate 601252 B) of 4 µg/mL (≈ 23.4 µM) and an MIC ([3]; Hoylesella timonensis, isolate 601255 17) of 2 µg/mL (≈ 11.7 µM). It also gave an MIC ([3]; Hoylesella timonensis, isolate 601266 18) of 2 µg/mL (≈ 11.7 µM), an MIC ([3]; Hoylesella timonensis, isolate 601278 12) of over 128 µg/mL and an MIC ([3]; Hoylesella timonensis, isolate 601281 22) of 2 µg/mL (≈ 11.7 µM). For the same molecule, the MIC ([3]; Hoylesella timonensis, isolate 601287 H) was 2 µg/mL (≈ 11.7 µM), the MIC ([3]; Hoylesella timonensis, isolate 601293 13) was 4 µg/mL (≈ 23.4 µM) and the MIC ([3]; Hoylesella timonensis, isolate 601367 E) was 4 µg/mL (≈ 23.4 µM). The MIC ([3]; Hoylesella timonensis, isolate 601370 13) was 4 µg/mL (≈ 23.4 µM), the MIC ([3]; Hoylesella timonensis, isolate 601388 S) was 4 µg/mL (≈ 23.4 µM) and the MIC ([3]; Hoylesella timonensis, isolate 601401 J) was 2 µg/mL (≈ 11.7 µM). For the same molecule, the MIC ([3]; Hoylesella timonensis, isolate 601411 S) was 4 µg/mL (≈ 23.4 µM), the MIC ([3]; Hoylesella timonensis, isolate 601414 O) was 4 µg/mL (≈ 23.4 µM) and the MIC ([3]; Hoylesella timonensis, isolate 601422 39) was 2 µg/mL (≈ 11.7 µM). It also gave an MIC ([3]; Hoylesella timonensis, isolate 601429 11) of 2 µg/mL (≈ 11.7 µM), an MIC ([3]; Hoylesella timonensis, isolate 601459 21) of 2 µg/mL (≈ 11.7 µM) and an MIC50 [3, 5] of 2 µg/mL (≈ 11.7 µM). For the same molecule, the MIC90 [3, 5] was 4 µg/mL (≈ 23.4 µM), the “Number of strains with indicated MIC” value ([3]; MIC >[…], 33 samples) was 1 and the Resistant ([3]; number (%) of isolates, # tested 33, resistance: rifaximin >32, metronidazole >32, clindamycin >8 μg/ml) was 1 (3) μg/ml.
